Experimental data published in patent US11795177B2, “Substituted quinoline analogs as aldehyde dehydrogenase 1A1 (ALDH1A1) inhibitors” (THE UNITED STATES OF AMERICA, AS REPRESENTED BY THE …, priority 2017, dated 2023).

Tests used:
ALDH1A1 enzyme = molecular target: T1, ALDH1A1 enzyme (Homo sapiens, UniProt P00352); assay: ALDH1A1 enzymatic assay (in vitro); assay type: biochemical; conditions: ALDH1A1 enzyme 20 nM, NAD+ 1 mM, propionaldehyde 80 μM; read-out: ALDH1A1 IC50
T1 sequence (P00352 1-501): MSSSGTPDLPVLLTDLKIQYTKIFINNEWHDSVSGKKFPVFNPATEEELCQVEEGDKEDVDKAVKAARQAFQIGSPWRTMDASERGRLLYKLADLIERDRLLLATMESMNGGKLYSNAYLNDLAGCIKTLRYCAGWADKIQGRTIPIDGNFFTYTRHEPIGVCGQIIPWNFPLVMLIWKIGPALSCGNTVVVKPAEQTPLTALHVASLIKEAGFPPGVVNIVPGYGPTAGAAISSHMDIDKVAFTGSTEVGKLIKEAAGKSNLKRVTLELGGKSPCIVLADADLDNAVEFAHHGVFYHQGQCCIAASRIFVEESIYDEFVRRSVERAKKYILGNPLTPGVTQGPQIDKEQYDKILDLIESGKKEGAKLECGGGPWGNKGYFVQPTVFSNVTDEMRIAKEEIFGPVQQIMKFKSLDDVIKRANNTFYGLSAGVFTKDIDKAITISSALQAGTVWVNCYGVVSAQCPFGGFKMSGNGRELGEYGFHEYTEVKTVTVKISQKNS
Outline: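 ALDH1A1 (20 nM final) in 100 mM HEPES pH 7.5, 0.01% Tween 20 was preincubated 15 min at RT with compound (968 pM–57.2 μM final), then started with 1 mM NAD+ and 80 μM propionaldehyde. NADH fluorescence (ex 340/em 450 nm) followed kinetically for 10 min; change normalized to no-inhibitor and no-enzyme controls for percent inhibition and curve fitting.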

MIA PaCa-2 cells = assay: MIA PaCa2 cell-based assay (1,536-well high-content imaging ALDEFLUOR assay); parameters: species or system human; conditions: Homo sapiens, 0.5 h, ALDEFLUOR BAAA substrate 500 nM, 30 minutes
Outline: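 High-content ALDEFLUOR imaging readout: BAA-retaining cells in FITC channel scored against Hoechst-counted nuclei. Before imaging, MIA PaCa-2 cells seeded at 1,000 per well received final 500 nM BAAA and 0.5 nM Hoechst with compounds in 16-point series (1.4 nM to 47.8 μM), 30 min, 37° C.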

## Cc1ccc(C2(C#N)CCN(c3c(C(=O)N4CCN(C(=O)C5CC5)CC4)cnc4ccc(F)cc34)CC2)c(F)c1 [Example 290, 1-(3-(4-(cyclopropanecarbonyl)piperazine-1-carbonyl)-6-fluoroquinolin-4-yl)-4-(2-fluoro-4-methylphenyl)piperidine-4-carbonitrile]
ALDH1A1 enzyme
  IC50: < 0.5 µM
MIA PaCa-2 cells
  IC50: < 0.5 µM

## O=C(c1cnc2ccc(F)cc2c1N1CCC(O)(c2ccccc2)CC1)N1CCN(C(=O)C2CC2)CC1 [Example 291, (4-(cyclopropanecarbonyl)piperazin-1-yl)(6-fluoro-4-(4-hydroxy-4-phenylpiperidin-1-yl)quinolin-3-yl)methanone]
ALDH1A1 enzyme
  IC50: < 0.5 µM
MIA PaCa-2 cells
  IC50: > 10 µM

## CS(=O)(=O)C1CCN(C(=O)c2cnc3ccsc3c2N2CCC(C#N)(c3ccccc3)CC2)CC1 [Example 293, 1-(6-(4-(methylsulfonyl)piperidine-1-carbonyl)thieno[3,2-b]pyridin-7-yl)-4-phenylpiperidine-4-carbonitrile]
ALDH1A1 enzyme
  IC50: < 0.5 µM
MIA PaCa-2 cells
  IC50: < 0.5 µM

## CS(=O)(=O)C1CCN(C(=O)c2cnc3ccc(Cl)cc3c2-c2ccc(C3(C#N)CC3)cc2)CC1 [Example 295, 1-(4-(6-chloro-3-(4-(methylsulfonyl)piperidine-1-carbonyl)quinolin-4-yl)phenyl)cyclopropanecarbonitrile]
ALDH1A1 enzyme
  IC50: < 0.5 µM
MIA PaCa-2 cells
  IC50: < 0.5 µM

## CN(C)C(=O)N1CCN(C(=O)c2cnc3ccc(Cl)cc3c2-c2ccc(C3(C#N)CC3)cc2)CC1 [Example 296, 4-(6-chloro-4-(4-(1-cyanocyclopropyl)phenyl)quinoline-3-carbonyl)-N,N-dimethylpiperazine-1-carboxamide]
ALDH1A1 enzyme
  IC50: < 0.5 µM
MIA PaCa-2 cells
  IC50: < 0.5 µM

## CN(C)S(=O)(=O)N1CCN(C(=O)c2cnc3ccc(Cl)cc3c2-c2ccc(C3(C#N)CC3)cc2)CC1 [Example 298, 4-(6-chloro-4-(4-(1-cyanocyclopropyl)phenyl)quinoline-3-carbonyl)-N,N-dimethylpiperazine-1-sulfonamide]
ALDH1A1 enzyme
  IC50: < 0.5 µM
MIA PaCa-2 cells
  IC50: < 0.5 µM

## CC(C)(C#N)c1ccc(-c2c(C(=O)N3CCN(S(C)(=O)=O)CC3)ccc3ccccc23)cc1 [Example 299, 2-methyl-2-(4-(2-(4-(methylsulfonyl)piperazine-1-carbonyl)naphthalen-1-yl)phenyl)propanenitrile]
ALDH1A1 enzyme
  IC50: < 0.5 µM
MIA PaCa-2 cells
  IC50: < 0.5 µM

## CS(=O)(=O)N1CCN(C(=O)c2ccc3ccccc3c2-c2ccc(C3(C#N)CC3)cc2)CC1 [Example 300, 1-(4-(2-(4-(methylsulfonyl)piperazine-1-carbonyl)naphthalen-1-yl)phenyl)cyclopropanecarbonitrile]
ALDH1A1 enzyme
  IC50: < 0.5 µM
MIA PaCa-2 cells
  IC50: < 0.5 µM
